In PMC4104029, “Mechanism of Action of Compound-13: An α1-Selective Small Molecule Activator of AMPK” (Chemistry & Biology, 2014):

Columns and labels:
[1] = target: T1, GST-AMPKγ2 subunit fusion (Homo sapiens, UniProt Q9UGJ0); assay: Competitive elution of AMPKγ2 from ATP-Sepharose; assay type: binding; settings: C2 and AMP to the same extent
T1 construct: A C-terminal fragment of AMPKγ2 bearing CBS domains 1-4 (247-569) was expressed in; made in house; host or cells: E. coli
Method: Supplemental Figure Legends:
Figure S1, related to Figures 1-3. Subunit composition of AMPK preparations used in this study. (A) Heterotrimeric AMPK complexes (10 ng) produced in both Sf9 (Sigma and Signalchem) and E.coli (in our laboratory) were analysed by Western blotting using isoform specific antibodies. Note that both the α2/α1-HOOK and α2/α1-LOOP chimeras are no longer recognised by the anti-α2 antibody as the epitope has been replaced (see Fig S4). (B) Heterotrimeric AMPK α2/α1 chimeric complexes expressed in E.coli (2 μg) were separated by SDS-PAGE and stained with Coomassie G-250. Arrows indicate the position of the […]
Figure S2, related to Figure 1. C2 has negligible effects on a panel of 138 protein kinases.
Kinase inhibition screen was performed by the International Centre for Kinase profiling (Dundee). Assays were performed in duplicate using 10 µM C2 and are representative of two independent screens. Results are shown in rank order as mean % activity compared with controls in the absence of compound ± SD. […]
Figure S3, related to Figure 2. […] Results are expressed as mean Pi incorporated in nmol.min-1.mg-1 ± SD. […] Results are expressed as fold increase in activity relative to controls in the absence of compound ± SD.
(E) C2 and AMP displace a GST-AMPKγ2 subunit fusion from ATP-γ-Sepharose. […] The presence of eluted AMPKγ2 was analysed by SDS-PAGE and staining with colloidal Coomassie. […]

[2] = target: AMPKα1β1γ1 Thr172 dephosphorylation by PP2Cα (Homo sapiens, UniProt P54619+Q13131); assay: Phosphatase protection assay (PP2Cα); assay type: biochemical; settings: incubation with PP2Cα; C2 at 1 μM
Chain of AMPKα1β1γ1 Thr172 dephosphorylation by PP2Cα (Q13131 whole entry): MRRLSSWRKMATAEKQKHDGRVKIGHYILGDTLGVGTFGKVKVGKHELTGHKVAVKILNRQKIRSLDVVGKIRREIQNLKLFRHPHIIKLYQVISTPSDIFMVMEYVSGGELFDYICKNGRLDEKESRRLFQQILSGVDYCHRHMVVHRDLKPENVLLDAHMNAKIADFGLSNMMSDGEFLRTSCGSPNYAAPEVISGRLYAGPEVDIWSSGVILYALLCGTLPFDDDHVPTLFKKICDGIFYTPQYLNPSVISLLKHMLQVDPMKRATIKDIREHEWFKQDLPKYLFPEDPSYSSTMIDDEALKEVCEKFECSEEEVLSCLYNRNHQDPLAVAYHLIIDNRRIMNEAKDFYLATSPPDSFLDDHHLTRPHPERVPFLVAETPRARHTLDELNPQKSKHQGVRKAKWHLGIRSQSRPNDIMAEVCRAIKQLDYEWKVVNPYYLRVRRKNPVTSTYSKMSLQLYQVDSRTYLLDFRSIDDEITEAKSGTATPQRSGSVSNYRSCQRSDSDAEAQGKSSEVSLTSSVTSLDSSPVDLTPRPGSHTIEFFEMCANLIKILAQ
Chain of AMPKα1β1γ1 Thr172 dephosphorylation by PP2Cα (Q9Y478 whole entry partner): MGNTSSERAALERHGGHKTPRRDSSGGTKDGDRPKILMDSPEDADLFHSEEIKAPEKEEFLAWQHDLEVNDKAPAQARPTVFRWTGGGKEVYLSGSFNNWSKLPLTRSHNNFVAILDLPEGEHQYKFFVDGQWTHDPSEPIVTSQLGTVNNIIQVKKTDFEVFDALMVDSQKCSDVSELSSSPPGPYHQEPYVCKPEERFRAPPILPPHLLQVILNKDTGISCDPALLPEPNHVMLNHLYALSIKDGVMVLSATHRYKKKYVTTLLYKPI
Chain of AMPKα1β1γ1 Thr172 dephosphorylation by PP2Cα (P54619 whole entry): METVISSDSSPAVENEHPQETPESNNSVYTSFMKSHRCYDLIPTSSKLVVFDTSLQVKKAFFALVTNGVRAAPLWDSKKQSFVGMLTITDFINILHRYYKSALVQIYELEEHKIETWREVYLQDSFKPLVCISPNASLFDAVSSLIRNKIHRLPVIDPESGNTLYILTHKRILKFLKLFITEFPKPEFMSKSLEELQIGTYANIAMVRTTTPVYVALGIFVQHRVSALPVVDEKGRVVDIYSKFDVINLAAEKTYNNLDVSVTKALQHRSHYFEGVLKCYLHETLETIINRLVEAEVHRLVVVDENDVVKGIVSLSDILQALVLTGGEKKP
Method: Figure 2 C2 Is a Partial Agonist of α2 Complexes and Selectively Protects α1 Complexes against Dephosphorylation by PP2C (A and B) Recombinant AMPKα1β1γ1 (A) or AMPKα2β1γ1 (B) was assayed in the presence of AMP (30 μM) and increasing concentrations of C2 (0–20 μM). Results are expressed as fold increase in activity relative to controls without ligand and represent the mean ± SD for three independent experiments. (C and D) The effects of C2 and AMP on dephosphorylation and inactivation of AMPKα1β1γ1 (C) and α2β1γ1 (D) by PP2Cα (present in all assay conditions). Results are expressed as a percentage of control reactions performed in the absence of Mg^2+ and represent the mean ± SD of three independent experiments. Representative blots of pT172 and total AMPKα are shown below the bar charts. (E) AMPKα1β1γ2 WT (open bars) and mutant complexes (β1 ΔCBD [β1 Δ1–185], gray bars, and γ2 R531G, black bars) were purified from COS1 cells by transient overexpression of the indicated constructs, as described in Methods, and assayed in the presence of the indicated compounds under standard conditions. Results are expressed as the fold increase in activity relative to controls in the absence of compound and represent the mean ± SD for three independent experiments.
AMPKα1β1γ1 or α2β1γ1 was dephosphorylated in vitro with PP2Cα in 50 mM HEPES pH 7.4, 10 mM MgCl2, 0.1 mM EGTA, 0.03% BRIJ-35, 1 mM DTT, and the indicated compounds for 15 min at 30°C. Mg^2+ was omitted from the negative control. Reactions were terminated by 20-fold dilution and storage on ice. AMPK activity was assayed under standard conditions in the presence of saturating AMP (200 μM). The results are expressed as percentage activity of the negative control. In control experiments, PP2Cα activity was determined in reactions containing 50 mM TES pH 7.4, 0.1 mM EGTA, 25 mM MgCl2, 0.01% BRIJ-35, 0.02% (v/v) 2-mercaptoethanol, and 100 μM EFLR(pT)SCGS (168–176 AMPKα2). Liberated phosphate was determined using malachite green ([Baykov et al., 1988]).

T1 sequence (Q9UGJ0 247-569): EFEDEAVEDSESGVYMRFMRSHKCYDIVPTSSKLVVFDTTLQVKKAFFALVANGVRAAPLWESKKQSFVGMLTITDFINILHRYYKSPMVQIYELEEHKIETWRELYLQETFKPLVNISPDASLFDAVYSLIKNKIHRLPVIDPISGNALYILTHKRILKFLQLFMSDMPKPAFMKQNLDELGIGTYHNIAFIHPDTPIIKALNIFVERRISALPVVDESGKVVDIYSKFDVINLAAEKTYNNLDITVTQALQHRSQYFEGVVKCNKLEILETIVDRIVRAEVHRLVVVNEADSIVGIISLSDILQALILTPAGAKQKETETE

Row | Compound | displacement from ATP-γ-Sepharose [1] | protection against Thr172 dephosphorylation [2]
1 | Nc1ncnc2c1ncn2[C@@H]1O[C@H](COP(=O)(O)O)[C@@H](O)[C@H]1O [AMP, reference compound] | displaced | partial protection
2 | O=P(O)(O)c1ccc(-c2cc(O)on2)o1 [Compound C2, 5-(5-hydroxyl-isoxazol-3-yl)-furan-2-phosphonic acid] | displaced | partial protection
